Data published in patent publication US10071957B2, “N-substituted benzamides and methods of use thereof” (GENENTECH, INC., priority 2012, dated 2018).

Target: hNaV1.7 (Homo sapiens (Human), UniProt Q15858)
Test: Competitive binding of tritiated compound to membranes from cells expressing hNav1.7 and the β1 subunit
Details: 100 pM [3H]compound, 18 h, room temperature; read-out: NaV1.7 395 Membrane Binding IC50
Experimental: Tritiated compound binding to membranes isolated from cells that heterologously express hNav1.7 and the β1 subunit
Preparation of membranes containing recombinantly expressed sodium channels: Frozen recombinant cell pellets were thawed on ice and diluted to 4 times the cell pellet weight with ice cold 50 mM Tris HCl, pH 7.4 buffer. The cell suspensions were homogenized on ice using a motorized glass dounce homogeniser. Homogenates were further diluted 8.4 times with ice cold 50 mM Tris HCl, pH 7.4 buffer and then centrifuged at 200×g at 4° C. for 15 min. The supernatants were collected and centrifuged at 10000×g at 4° C. for 50 min. The pellets were then re-suspended in 100 mM NaCl, 20 mM Tris HCl, pH 7.4 buffer containing 1% v/v protease inhibitors (Calbiochem) and re-homogenized on ice. The homogenized membranes were then processed through a syringe equipped with a 26 gauge needle. Protein concentrations were determined by Bradford Assay and the membranes were stored at −80° C.
Radioligand Binding Studies: Saturation experiments. A representative compound of formula (I) was tritiated. Three tritiums were incorporated in place of methyl hydrogens to generate [^3H]compound. Binding of this radioligand was performed in 5 mL borosilicate glass test tubes at room temperature. Binding was initiated by adding membranes to increasing concentrations of [^3H]compound in 100 mM NaCl, 20 mM Tris HCl, pH 7.4 buffer containing 0.01% w/v bovine serum albumin (BSA) for 18 h. Non-specific binding was determined in the presence of 1 μM unlabelled compound. After 18 h, the reactants were filtered through GF/C glass fiber filters presoaked in 0.5% w/v polyethylene imine. Filters were washed with 15 mL ice cold 100 mM NaCl, 20 mM Tris HCl, pH 7.4 buffer containing 0.25% BSA to separate bound from free ligand. [^3H]compound bound to filters was quantified by liquid scintillation counting.
Competitive binding experiments. Binding reactions were performed in 96-well polypropylene plates at room temperature for 18 h. In 360 μL, membranes were incubated with 100 pM [^3H]compound and increasing concentrations of Test Compound. Non-specific binding was defined in the presence of 1 μM unlabelled compound. Reactions were transferred and filtered through 96-well glass fiber/C filter plates presoaked with 0.5% polyethylene imine. The filtered reactions were washed 5 times with 200 μL ice cold buffer containing 0.25% BSA. Bound radioactivity was determined by liquid scintillation counting.
Data Analysis: For saturation experiments, non-specific binding was subtracted from total binding to provide specific binding and these values were recalculated in terms of pmol ligand bound per mg protein. Saturation curves were constructed and dissociation constants were calculated using the single site ligand binding model: Beq=(Bmax*X)/(X+Kd), where Beq is the amount of ligand bound at equilibrium, Bmax is the maximum receptor density, Kd is the dissociation constant for the ligand, and X is the free ligand concentration. For competition studies percent inhibition was determined and IC50 values were calculated using a 4 parameter logistic model (% inhibition=(A+((B−A)/(1+((x/C)^D)))) using XLfit, where A and B are the maximal and minimum inhibition respectively, C is the IC50 concentration and D is the (Hill) slope.

hNaV1.7, sequence (Q15858 whole entry, looked up): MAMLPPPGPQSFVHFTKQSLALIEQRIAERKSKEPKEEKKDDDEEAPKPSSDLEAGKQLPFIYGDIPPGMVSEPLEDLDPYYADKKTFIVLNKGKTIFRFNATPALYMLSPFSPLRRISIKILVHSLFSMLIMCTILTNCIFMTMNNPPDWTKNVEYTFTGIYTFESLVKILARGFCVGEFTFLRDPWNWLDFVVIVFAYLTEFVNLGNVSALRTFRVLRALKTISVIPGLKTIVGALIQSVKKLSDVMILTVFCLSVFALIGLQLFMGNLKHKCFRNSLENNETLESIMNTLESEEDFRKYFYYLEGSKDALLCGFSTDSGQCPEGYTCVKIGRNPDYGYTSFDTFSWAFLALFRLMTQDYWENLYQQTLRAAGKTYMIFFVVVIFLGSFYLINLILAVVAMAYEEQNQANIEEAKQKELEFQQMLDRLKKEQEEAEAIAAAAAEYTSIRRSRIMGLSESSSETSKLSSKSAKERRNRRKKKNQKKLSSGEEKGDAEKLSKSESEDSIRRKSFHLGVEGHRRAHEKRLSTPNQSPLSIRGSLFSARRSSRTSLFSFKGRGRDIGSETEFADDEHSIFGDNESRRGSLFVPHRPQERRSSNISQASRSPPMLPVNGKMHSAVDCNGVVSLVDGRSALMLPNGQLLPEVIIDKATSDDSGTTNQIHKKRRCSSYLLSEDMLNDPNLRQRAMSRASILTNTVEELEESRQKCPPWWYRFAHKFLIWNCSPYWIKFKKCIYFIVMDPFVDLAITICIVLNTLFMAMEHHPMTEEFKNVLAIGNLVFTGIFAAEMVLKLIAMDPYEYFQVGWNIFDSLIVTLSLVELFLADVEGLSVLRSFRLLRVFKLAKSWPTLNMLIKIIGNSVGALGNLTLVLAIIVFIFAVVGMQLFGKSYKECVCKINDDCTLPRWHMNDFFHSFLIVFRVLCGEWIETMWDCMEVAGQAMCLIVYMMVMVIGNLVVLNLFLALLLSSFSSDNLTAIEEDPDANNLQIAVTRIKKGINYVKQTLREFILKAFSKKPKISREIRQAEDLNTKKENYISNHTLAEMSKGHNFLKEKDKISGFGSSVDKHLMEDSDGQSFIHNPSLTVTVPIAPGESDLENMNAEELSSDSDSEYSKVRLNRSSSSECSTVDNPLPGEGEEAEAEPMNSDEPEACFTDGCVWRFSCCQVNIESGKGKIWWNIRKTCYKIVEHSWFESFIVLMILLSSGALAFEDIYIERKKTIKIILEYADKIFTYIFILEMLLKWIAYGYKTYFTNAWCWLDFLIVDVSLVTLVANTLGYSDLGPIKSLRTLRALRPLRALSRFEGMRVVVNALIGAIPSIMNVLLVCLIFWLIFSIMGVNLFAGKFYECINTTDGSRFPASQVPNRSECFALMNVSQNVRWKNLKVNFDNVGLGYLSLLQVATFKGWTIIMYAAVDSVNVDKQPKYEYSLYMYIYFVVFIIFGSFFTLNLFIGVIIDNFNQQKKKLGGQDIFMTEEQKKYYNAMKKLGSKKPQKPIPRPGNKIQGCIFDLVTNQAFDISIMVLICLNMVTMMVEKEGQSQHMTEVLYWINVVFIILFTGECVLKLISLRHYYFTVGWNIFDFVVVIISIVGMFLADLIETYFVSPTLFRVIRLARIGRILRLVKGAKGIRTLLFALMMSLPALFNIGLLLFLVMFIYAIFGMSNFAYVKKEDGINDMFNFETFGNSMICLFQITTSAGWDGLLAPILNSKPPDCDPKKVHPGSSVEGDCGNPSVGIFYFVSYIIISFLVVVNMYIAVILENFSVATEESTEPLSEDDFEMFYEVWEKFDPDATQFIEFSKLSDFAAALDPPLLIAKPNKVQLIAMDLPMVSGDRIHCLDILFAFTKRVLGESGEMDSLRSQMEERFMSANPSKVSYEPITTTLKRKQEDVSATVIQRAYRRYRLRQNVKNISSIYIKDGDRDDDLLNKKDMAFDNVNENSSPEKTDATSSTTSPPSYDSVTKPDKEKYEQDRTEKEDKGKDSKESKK
hNaV1.7, sequence (Q07699 whole entry partner, looked up): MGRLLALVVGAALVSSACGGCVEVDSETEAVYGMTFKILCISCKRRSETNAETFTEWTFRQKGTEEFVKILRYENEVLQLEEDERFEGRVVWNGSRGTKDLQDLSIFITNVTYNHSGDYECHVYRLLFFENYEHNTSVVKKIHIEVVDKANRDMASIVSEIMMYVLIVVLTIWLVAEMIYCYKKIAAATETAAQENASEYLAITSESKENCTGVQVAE

## Cc1cc2cc(Oc3cc(F)c(C(=O)NS(=O)(=O)N(C)C)cc3Cl)ccc2[nH]1 [Preparation 59, 5-chloro-N-(N,N-dimethylsulfamoyl)-2-fluoro-4-((2-methyl-1H-indol-5-yl)oxy) benzamide]
  IC50: 5200 nM

## CN(C)S(=O)(=O)NC(=O)c1cc(Cl)c(Oc2cccc3cnccc23)cc1F [Preparation 60, 5-chloro-N-(N,N-dimethylsulfamoyl)-2-fluoro-4-(isoquinolin-5-yloxy)benzamide]
  IC50: 20000 nM

## CN(C)S(=O)(=O)NC(=O)c1cc(Cl)c(Oc2ccc(S(C)(=O)=O)cc2)cc1F [Preparation 61, 5-chloro-N-(N,N-dimethylsulfamoyl)-2-fluoro-4-(4-(methyl-sulfonyl)phenoxy) benzamide]
  IC50: 20000 nM

## CN(C)S(=O)(=O)NC(=O)c1cc(Cl)c(Oc2ccc3cnn(C)c3c2)cc1F [Preparation 62, 5-chloro-N-(N,N-dimethylsulfamoyl)-2-fluoro-4-((1-methyl-1H-indazol-6-yl)oxy) benzamide]
  IC50: 14000 nM

## CN(C)S(=O)(=O)NC(=O)c1cc(Cl)c(Oc2cnc(N3CCCCC3)c(Cl)c2)cc1F [Preparation 63, 5-chloro-4-((5-chloro-6-(piperidin-1-yl)pyridin-3-yl)oxy)-N-(N,N-dimethyl-sulfamoyl)-2-fluoro-benzamide]
  IC50: 140 nM

## Cc1nc2ccc(Oc3cc(F)c(C(=O)NS(=O)(=O)N(C)C)cc3Cl)cc2s1 [Preparation 64, 5-chloro-N-(N,N-dimethylsulfamoyl)-2-fluoro-4-((2-methyl-benzo[d]thiazol-6-yl)oxy)benzamide]
  IC50: 1900 nM

## CC(C)COc1ncc(Oc2cc(F)c(C(=O)NS(=O)(=O)N(C)C)cc2C#N)cc1Cl [Preparation 65, 4-((5-chloro-6-iso-butoxypyridin-3-yl)oxy)-5-cyano-N-(N,N-dimethylsulfamoyl)-2-fluorobenzamide]
  IC50: 93 nM

## O=C(NS(=O)(=O)N1CCCC1)c1cc(Cl)c(Oc2cnc(OCC(F)(F)C(F)F)c(Cl)c2)cc1F [Preparation 66, 5-chloro-4-((5-chloro-6-(2,2,3,3-tetrafluoro-propoxy)pyridin-3-yl)oxy)-2-fluoro-N-(pyrrolidin-1-ylsulfonyl)benzamide]
  IC50: 26 nM

## O=C(NS(=O)(=O)c1cccnc1)c1cc(Cl)c(Oc2cnc(OCC(F)(F)C(F)F)c(Cl)c2)cc1F [Preparation 69, 5-chloro-4-((5-chloro-6-(2,2,3,3-tetrafluoro-propoxy)pyridin-3-yl)oxy)-2-fluoro-N-(pyridin-3-ylsulfonyl) benzamide]
  IC50: 950 nM

## CN(C)S(=O)(=O)NC(=O)c1cc(Cl)c(Oc2cc(OC(F)(F)F)ccc2F)cc1F [Preparation 70, 5-chloro-N-(N,N-dimethylsulfamoyl)-2-fluoro-4-(2-fluoro-5-(trifluoromethoxy)phenoxy)benzamide]
  IC50: 340 nM

## CN(C)S(=O)(=O)NC(=O)c1cc(Cl)c(Oc2cccc3ncccc23)cc1F [Preparation 71, 5-chloro-N-(N,N-dimethylsulfamoyl)-2-fluoro-4-(quinolin-5-yloxy)benzamide]
  IC50: 20000 nM

## CN(C)S(=O)(=O)NC(=O)c1cc(Cl)c(Oc2ccc3ncccc3c2)cc1F [Preparation 72, 5-chloro-N-(N,N-dimethylsulfamoyl)-2-fluoro-4-(quinolin-6-yloxy)benzamide]
  IC50: 9600 nM

## CN(C)S(=O)(=O)NC(=O)c1cc(Cl)c(Oc2ccc3ccncc3c2)cc1F [Preparation 73, 5-chloro-N-(N,N-dimethylsulfamoyl)-2-fluoro-4-(isoquinolin-7-yloxy)benzamide]
  IC50: 20000 nM

## Cc1cc(Oc2cc(F)c(C(=O)NS(=O)(=O)N(C)C)cc2Cl)cc(C)c1C#N [Preparation 74, 5-chloro-4-(4-cyano-3,5-dimethylphenoxy)-N-(N,N-dimethyl-sulfamoyl)-2-fluoro-benzamide]
  IC50: 11000 nM

## CC(C)COc1ncc(Oc2cc(F)c(C(=O)NS(N)(=O)=O)cc2C#N)cc1Cl [Preparation 75, 4-((5-chloro-6-iso-butoxypyridin-3-yl)oxy)-5-cyano-2-fluoro-N-sulfamoyl-benzamide]
  IC50: 290 nM

## CNS(=O)(=O)NC(=O)c1cc(Cl)c(COc2cnc(OC(C)C)c(Cl)c2)cc1F [Preparation 77]
  IC50: 140 nM

## CNS(=O)(=O)NC(=O)c1cc(Cl)c(COc2ccc(Cl)c(C(F)(F)F)c2)cc1F [Preparation 78]
  IC50: 35 nM

## O=C(NS(=O)(=O)N1CCC1)c1cc(Cl)c(COc2ccc(OC(F)(F)F)c(Cl)c2)cc1F [Preparation 79]
  IC50: 17 nM

## O=C(NS(=O)(=O)N1CCC1)c1ccc(Oc2ccc(OC(F)(F)F)c(Cl)c2)c(C2(O)COC2)c1 [Preparation 81]
  IC50: 20200 nM

## CNS(=O)(=O)NC(=O)c1ccc(Oc2cnc(OC(C)C)c(Cl)c2)c(-c2cccnc2OC)c1 [Preparation 83]
  IC50: 43 nM

## O=C(NS(=O)(=O)N1CCC1)c1cc(Cl)c(COc2ccc(Cl)c(C(F)(F)F)c2)cc1F [Preparation 85]
  IC50: 26 nM

## CC(C)Oc1ncc(Oc2cc(F)c(C(=O)NS(=O)(=O)N3CCC3)cc2C2(F)COC2)cc1Cl [Preparation 88]
  IC50: 44 nM

## CC(C)Oc1ncc(Oc2cc(F)c(C(=O)NS(=O)(=O)N3CCC3)cc2C2(O)COC2)cc1Cl [Preparation 89]
  IC50: 1300 nM

## CNS(=O)(=O)NC(=O)c1cc(C2CC2)c(Oc2cnc(OC(C)C)c(Cl)c2)cc1F [Preparation 90]
  IC50: 6 nM

## O=C(NS(=O)(=O)N1CCC1)c1cc(Cl)c(Oc2cnc(OCC(F)(F)F)c(Cl)c2)cc1F [Preparation 93]
  IC50: 16 nM

## O=C(NS(=O)(=O)N1CCC1)c1cc(C2CC2)c(Oc2cnc(OCC(F)(F)F)c(Cl)c2)cc1F [Preparation 94]
  IC50: 9 nM

## O=C(NS(=O)(=O)N1CCC1)c1cc(C2CC2)c(COc2cc(Cl)cc(OC(F)(F)F)c2)cc1F [Preparation 95]
  IC50: 2 nM

## O=C(NS(=O)(=O)N1CCC1)c1cc(C2CC2)c(COc2cc(Cl)cc(Cl)c2)cc1F [Preparation 96]
  IC50: 0.3 nM

## COc1ncccc1-c1cc(C(=O)NS(=O)(=O)N2CCC2)ccc1Oc1ccc(OC(F)(F)F)c(Cl)c1 [Preparation 97]
  IC50: 52 nM

## O=C(NS(=O)(=O)N1CCC1)c1cc(C2CC2)c(COc2ccc(Cl)c(Cl)c2)cc1F [Preparation 98]
  IC50: 9 nM

## O=C(NS(=O)(=O)N1CCC1)c1cc(Cl)c(COc2ccc(Cl)c(Cl)c2)cc1F [Preparation 99]
  IC50: 51 nM

## CNS(=O)(=O)NC(=O)c1cc(Cl)c(COc2ccc(OC(F)(F)F)c(Cl)c2)cc1F [Preparation 100]
  IC50: 43 nM

## O=C(NS(=O)(=O)N1CCC1)c1cc(Cl)c(COc2cnc(OCC(F)(F)C(F)F)c(Cl)c2)cc1F [Preparation 101]
  IC50: 68 nM
